Values after ≈ are worked out from the molar mass of the structure shown.
Test system: not listed separately
Experiment: AUC last in Sprague-Dawley rat at 10 mg/kg, po measured upto 24 to 48 hrs by LC-MS/MS analysis
Assay type: ADME, organism-based
Set-up: time upper 48 hrs, dose 10 mg/kg, time lower 24 hrs, route po
Settings: in vivo

| Compound | AUC(0-t) [ng·h/mL] |
| --- | --- |
| COc1cc(NC(C(=O)c2c[nH]c3c(C)c(F)ccc23)c2ccc(F)cc2OC)cc(OCCO)c1 (single isomer, unassigned; (+)) | 8290 |
| COc1cc(NC(C(=O)c2c[nH]c3cc(F)ccc23)c2ccc(F)cc2)cc(OCCO)c1 (stereo in doubt) | 4370 |

Test system: not listed separately
Experiment: Volume of distribution at steady state in Sprague-Dawley rat at 2.5 mg/kg, iv measured upto 24 hrs by LC-MS/MS analysis
Assay type: ADME, organism-based
Settings: in vivo, read-out: Vdss

| Compound | Vd [L/kg] |
| --- | --- |
| COc1cc(NC(C(=O)c2c[nH]c3c(C)c(F)ccc23)c2ccc(F)cc2OC)cc(OCCO)c1 (single isomer, unassigned; (+)) | 8.5 |
| COc1cc(NC(C(=O)c2c[nH]c3cc(F)ccc23)c2ccc(F)cc2)cc(OCCO)c1 (stereo in doubt) | 7.3 |

Test system: dengue virus type 3
Experiment: Antiviral activity against DENV-3 H87 infected in african green monkey Vero cells incubated for 24 hrs measured after 3 days post infection
Assay type: functional, organism-based
Settings: not given

| Compound | EC50 [nM] |
| --- | --- |
| COc1cc(NC(C(=O)c2c[nH]c3ccccc23)c2ccccc2)cc(OCCO)c1 (stereo unspecified) | 1000 |
| COc1cc(NC(C(=O)c2c[nH]c3cc(F)ccc23)c2ccc(F)cc2)cc(OCCO)c1 (stereo in doubt) | 420 |

Test system: dengue virus type 2
Experiment: Antiviral activity against DENV-2 16681 expressing eGFP infected in african green monkey Vero cells incubated with cells for 24 hrs followed by viral infection measured after 3 days by laser microscopic analysis
Assay type: functional, organism-based
Settings: Dengue virus, 16681, Vero

| Compound | EC50 [nM] |
| --- | --- |
| COc1cc(NC(C(=O)c2c[nH]c3ccccc23)c2ccccc2)cc(OCCO)c1 (stereo unspecified) | 49 |
| COc1cc(NC(C(=O)c2c[nH]c3c(C)c(F)ccc23)c2ccc(F)cc2OC)cc(OCCO)c1 (single isomer, unassigned; (+)) | 2 |

Same assay, conditions: vero

| Compound | EC50 [nM] |
| --- | --- |
| COc1cc(NC(C(=O)c2c[nH]c3cc(F)ccc23)c2ccc(F)cc2)cc(OCCO)c1 (stereo in doubt) | 15 |

Test system: dengue virus type 1
Experiment: Antiviral activity against DENV-1 TC974#666 infected in african green monkey Vero cells incubated for 24 hrs measured after 3 days post infection
Assay type: functional, organism-based
Settings: TC974#666, Vero

| Compound | EC50 [nM] |
| --- | --- |
| COc1cc(NC(C(=O)c2c[nH]c3ccccc23)c2ccccc2)cc(OCCO)c1 (stereo unspecified) | 180 |
| COc1cc(NC(C(=O)c2c[nH]c3cc(F)ccc23)c2ccc(F)cc2)cc(OCCO)c1 (stereo in doubt) | 49 |

Test system: not listed separately
Experiment: Cmax in Sprague-Dawley rat at 10 mg/kg, po measured upto 24 to 48 hrs by LC-MS/MS analysis
Assay type: ADME, organism-based
Set-up: time upper 48 hrs, dose 10 mg/kg, time lower 24 hrs, route po
Settings: in vivo

| Compound | Cmax [ng/mL] |
| --- | --- |
| COc1cc(NC(C(=O)c2c[nH]c3c(C)c(F)ccc23)c2ccc(F)cc2OC)cc(OCCO)c1 (single isomer, unassigned; (+)) | 573 |
| COc1cc(NC(C(=O)c2c[nH]c3cc(F)ccc23)c2ccc(F)cc2)cc(OCCO)c1 (stereo in doubt) | 295 |

Test system: not listed separately
Experiment: Kinetic solubility of the compound in aqueous buffer at pH 2 measured after 4 hrs by UPLC/UV analysis
Assay type: physicochemical
Settings: read-out: Kinetic_solubility

| Compound | solubility kinetic at 4 h [µM] |
| --- | --- |
| COc1cc(NC(C(=O)c2c[nH]c3c(C)c(F)ccc23)c2ccc(F)cc2OC)cc(OCCO)c1 (single isomer, unassigned; (+)) | 34 (≈ 16.9 µg/mL) |

Test system: not listed separately
Experiment: Oral bioavailability in Sprague-Dawley rat at 10 mg/kg measured upto 24 to 48 hrs by LC-MS/MS analysis
Assay type: ADME, organism-based
Settings: in vivo, time 24-48 hrs

| Compound | bioavailability [%] |
| --- | --- |
| COc1cc(NC(C(=O)c2c[nH]c3c(C)c(F)ccc23)c2ccc(F)cc2OC)cc(OCCO)c1 (single isomer, unassigned; (+)) | 88 |
| COc1cc(NC(C(=O)c2c[nH]c3cc(F)ccc23)c2ccc(F)cc2)cc(OCCO)c1 (stereo in doubt) | 40 |

Test system: not listed separately
Experiment: Microsomal stability in mouse liver microsomes assessed as intrinsic clearance preincubated for 5 mins followed by NADPH addition measured upto 60 mins by LC-MS/MS analysis
Assay type: ADME, Microsome
Settings: time < 65 min, read-out: CLH

| Compound | microsomal CLint [µL/min/mg] |
| --- | --- |
| COc1cc(NC(C(=O)c2c[nH]c3ccccc23)c2ccccc2)cc(OCCO)c1 (stereo unspecified) | 201 |
| COc1cc(NC(C(=O)c2c[nH]c3c(C)c(F)ccc23)c2ccc(F)cc2OC)cc(OCCO)c1 (single isomer, unassigned; (+)) | < 8 |
| COc1cc(NC(C(=O)c2c[nH]c3cc(F)ccc23)c2ccc(F)cc2)cc(OCCO)c1 (stereo in doubt) | 26 |

Test system: not listed separately
Experiment: Microsomal stability in human liver microsomes assessed as intrinsic clearance preincubated for 5 mins followed by NADPH addition measured upto 60 mins by LC-MS/MS analysis
Assay type: ADME, Microsome
Settings: time < 65 min, read-out: CLH

| Compound | microsomal CLint [µL/min/mg] |
| --- | --- |
| COc1cc(NC(C(=O)c2c[nH]c3ccccc23)c2ccccc2)cc(OCCO)c1 (stereo unspecified) | < 8 |
| COc1cc(NC(C(=O)c2c[nH]c3c(C)c(F)ccc23)c2ccc(F)cc2OC)cc(OCCO)c1 (single isomer, unassigned; (+)) | < 8 |
| COc1cc(NC(C(=O)c2c[nH]c3cc(F)ccc23)c2ccc(F)cc2)cc(OCCO)c1 (stereo in doubt) | < 8 |

Test system: not listed separately
Experiment: Clearance in CD-1 mouse at 2.5 mg/kg, iv measured for 0.12 to 24 hrs by LC-MS/MS analysis
Assay type: ADME, organism-based
Settings: in vivo, time 0.12-24 hrs

| Compound | clearance [mL/min/kg] |
| --- | --- |
| COc1cc(NC(C(=O)c2c[nH]c3ccccc23)c2ccccc2)cc(OCCO)c1 (stereo unspecified) | 54 |
| COc1cc(NC(C(=O)c2c[nH]c3cc(F)ccc23)c2ccc(F)cc2)cc(OCCO)c1 (stereo in doubt) | 37.1 |

Test system: not listed separately
Experiment: Cytotoxicity against african green monkey Vero cells by ATPlite cell viability luminescence assay
Assay type: toxicity, cell-based
Settings: chlorocebus sabaeus

| Compound | CC50 [nM] |
| --- | --- |
| COc1cc(NC(C(=O)c2c[nH]c3ccccc23)c2ccccc2)cc(OCCO)c1 (stereo unspecified) | 21000 |
| COc1cc(NC(C(=O)c2c[nH]c3c(C)c(F)ccc23)c2ccc(F)cc2OC)cc(OCCO)c1 (single isomer, unassigned; (+)) | 5300 |
| COc1cc(NC(C(=O)c2c[nH]c3cc(F)ccc23)c2ccc(F)cc2)cc(OCCO)c1 (stereo in doubt) | 13000 |

Test system: not listed separately
Experiment: Half life in Sprague-Dawley rat at 2.5 mg/kg, iv measured by LC-MS/MS analysis
Assay type: ADME, organism-based
Settings: in vivo

| Compound | half-life [h] |
| --- | --- |
| COc1cc(NC(C(=O)c2c[nH]c3c(C)c(F)ccc23)c2ccc(F)cc2OC)cc(OCCO)c1 (single isomer, unassigned; (+)) | 6.5 |
| COc1cc(NC(C(=O)c2c[nH]c3cc(F)ccc23)c2ccc(F)cc2)cc(OCCO)c1 (stereo in doubt) | 6 |

Test system: not listed separately
Experiment: Kinetic solubility of the compound in aqueous buffer at pH 4 measured after 4 hrs by UPLC/UV analysis
Assay type: physicochemical
Settings: read-out: Kinetic_solubility

| Compound | solubility kinetic at 4 h [µM] |
| --- | --- |
| COc1cc(NC(C(=O)c2c[nH]c3c(C)c(F)ccc23)c2ccc(F)cc2OC)cc(OCCO)c1 (single isomer, unassigned; (+)) | 3 (≈ 1.49 µg/mL) |

Test system: dengue virus type 2
Experiment: Antiviral activity against DENV-2 16681 infected in african green monkey Vero cells incubated for 24 hrs measured after 3 days post infection
Assay type: functional, organism-based
Settings: Dengue virus, 16681, Vero

| Compound | EC50 [nM] |
| --- | --- |
| COc1cc(NC(C(=O)c2c[nH]c3ccccc23)c2ccccc2)cc(OCCO)c1 (stereo unspecified) | 32 |
| COc1cc(NC(C(=O)c2c[nH]c3cc(F)ccc23)c2ccc(F)cc2)cc(OCCO)c1 (stereo in doubt) | 12 |

Test system: not listed separately
Experiment: Kinetic solubility of the compound in aqueous buffer at pH 7.4 measured after 4 hrs by UPLC/UV analysis
Assay type: physicochemical
Settings: read-out: Kinetic_solubility

| Compound | solubility kinetic at 4 h [µM] |
| --- | --- |
| COc1cc(NC(C(=O)c2c[nH]c3c(C)c(F)ccc23)c2ccc(F)cc2OC)cc(OCCO)c1 (single isomer, unassigned; (+)) | 2 (≈ 0.993 µg/mL) |

Test system: dengue virus type 4
Experiment: Antiviral activity against DENV-4 H241 infected in african green monkey Vero cells incubated for 24 hrs measured after 3 days post infection
Assay type: functional, organism-based
Settings: Dengue virus, H241, Vero

| Compound | EC50 [nM] |
| --- | --- |
| COc1cc(NC(C(=O)c2c[nH]c3ccccc23)c2ccccc2)cc(OCCO)c1 (stereo unspecified) | 3900 |
| COc1cc(NC(C(=O)c2c[nH]c3cc(F)ccc23)c2ccc(F)cc2)cc(OCCO)c1 (stereo in doubt) | 870 |

Test system: not listed separately
Experiment: Microsomal stability in rat liver microsomes assessed as intrinsic clearance preincubated for 5 mins followed by NADPH addition measured upto 60 mins by LC-MS/MS analysis
Assay type: ADME, Microsome
Settings: time < 65 min, read-out: CLH

| Compound | microsomal CLint [µL/min/mg] |
| --- | --- |
| COc1cc(NC(C(=O)c2c[nH]c3ccccc23)c2ccccc2)cc(OCCO)c1 (stereo unspecified) | 37 |
| COc1cc(NC(C(=O)c2c[nH]c3c(C)c(F)ccc23)c2ccc(F)cc2OC)cc(OCCO)c1 (single isomer, unassigned; (+)) | < 8 |
| COc1cc(NC(C(=O)c2c[nH]c3cc(F)ccc23)c2ccc(F)cc2)cc(OCCO)c1 (stereo in doubt) | < 8 |

Test system: not listed separately
Experiment: Clearance in Sprague-Dawley rat at 2.5 mg/kg, iv measured upto 24 hrs by LC-MS/MS analysis
Assay type: ADME, organism-based
Settings: in vivo

| Compound | clearance [mL/min/kg] |
| --- | --- |
| COc1cc(NC(C(=O)c2c[nH]c3ccccc23)c2ccccc2)cc(OCCO)c1 (stereo unspecified) | 34.7 |
| COc1cc(NC(C(=O)c2c[nH]c3c(C)c(F)ccc23)c2ccc(F)cc2OC)cc(OCCO)c1 (single isomer, unassigned; (+)) | 16.4 |
| COc1cc(NC(C(=O)c2c[nH]c3cc(F)ccc23)c2ccc(F)cc2)cc(OCCO)c1 (stereo in doubt) | 13.9 |

From ChEMBL document CHEMBL5331131, “Discovery of Acyl-Indole Derivatives as Pan-Serotype Dengue Virus NS4B Inhibitors” (J Med Chem, 2023)
